Experimental data from ChEMBL document CHEMBL5329222, “Discovery of novel tubulin CBSI (R)-9k from the indanone scaffold for the treatment of colorectal cancer” (RSC Med Chem, 2023).

Experiments:
HCT-116 [1] = assay: Induction of cell cycle arrest in human HCT-116 cells assessed as accumulation of cells at G2 phase at 6 uM incubated for 24 hrs by flow cytometry analysis (reference value: 18.25%); type: functional
HCT-116 [2] = assay: Growth inhibition of human HCT-116 cells incubated for 1.5 hrs by MTT assay; type: functional, cell-based; conditions: HCT-116, 1.5 h
HCT-116 [3] = assay: Induction of cell cycle arrest in human HCT-116 cells assessed as accumulation of cells at G2/M phase at 6 uM incubated for 24 hrs by flow cytometry analysis (reference value: 18.25%); type: functional
HCT-116 [4] = assay: Inhibition of cell migration in human HCT-116 cells at 0.5 uM measured for 24 hrs by scratch wound healing assay; type: functional
Tubulin (Bos taurus) [5] = molecular target: T1, Tubulin (Bos taurus) (UniProt Q6B856+Q862L2+Q862F3); assay: Inhibition of bovine brain tubulin polymerization at 3 uM measured at 2 to 20 mins by spectrophotometer analysis relative to control; conditions: time 2-20 min
HeLa = assay: Growth inhibition of human HeLa cells incubated for 1.5 hrs by MTT assay; type: functional, cell-based
HCT-116 [6] = assay: Inhibition of colony formation in human HCT-116 cells at 0.5 uM incubated for 48 hrs by crystal violet staining based analysis; type: functional; conditions: HCT-116, 48 h, values are per cent of control
Tubulin (Bos taurus) [7] = molecular target: T1, Tubulin (Bos taurus); assay: Inhibition of bovine brain tubulin polymerization at 6 uM measured at 2 to 20 mins by spectrophotometer analysis relative to control; conditions: time 2-20 min
HCT-116 [8] = assay: Inhibition of cell migration in human HCT-116 cells at 5 uM measured for 24 hrs by scratch wound healing assay; type: functional
A2780 = assay: Growth inhibition of human A2780 cells incubated for 1.5 hrs by MTT assay; type: functional, cell-based; conditions: A2780, 1.5 h
HCT-116 [9] = assay: Induction of apoptosis in human HCT-116 cells assessed as viable cells at 3 uM incubated for 24 hrs by annexin V-FITC/7-AAD staining based flow cytometry analysis (reference value: 90.19%); type: functional; conditions: read-out: Activity
HCT-116 [10] = assay: Induction of apoptosis in human HCT-116 cells assessed as viable cells at 1.5 uM incubated for 24 hrs by annexin V-FITC/7-AAD staining based flow cytometry analysis (reference value: 90.19%); type: functional; conditions: read-out: Activity
HCT-116 [11] = assay: Induction of cell cycle arrest in human HCT-116 cells assessed as accumulation of cells at S phase at 1.5 uM incubated for 24 hrs by flow cytometry analysis (reference value: 3.61%); type: functional
[12] = Potency index, ratio of test compound IC50 to colchicine IC50 for cytotoxicity against human HUVEC cells assessed as inhibition of cell growth incubated 1.5 hrs by MTT assay; type: toxicity, cell-based; conditions: read-out: Ratio IC50
CT26 = assay: Growth inhibition of CT26 cells incubated for 1.5 hrs by MTT assay; type: functional, cell-based; conditions: Mus musculus, CT26, 1.5 h
HCT-116 [13] = assay: Induction of apoptosis in human HCT-116 cells assessed as necrotic cells at 1.5 uM incubated for 24 hrs by annexin V-FITC/7-AAD staining based flow cytometry analysis (reference value: 2.46%); type: functional
HCT-116 [14] = assay: Inhibition of cell migration in human HCT-116 cells measured for 24 hrs by scratch wound healing assay; type: functional, cell-based; conditions: dose 0.5-5 µM

CCOc1ccc([C@H]2CC(=O)c3cc(OC)c(OC)c(OC)c32)cc1F
Activity (HCT-116 [1]): 47.34% | IC50 (HCT-116 [2]): 260 nM | Activity (HCT-116 [3]): 47.34% | inhibition at 0.5 µM (HCT-116 [4]): 21% | inhibition (Tubulin (Bos taurus) [5]): 30% | IC50 (HeLa): 380 nM | growth, % of control at 0.5 µM (HCT-116 [6]): 30.8% | inhibition (Tubulin (Bos taurus) [7]): 54% | inhibition at 5 µM (HCT-116 [8]): 80% | IC50 (A2780): 590 nM | viability at 3 µM (HCT-116 [9]): 73% | viability at 1.5 µM (HCT-116 [10]): 86.7% | Activity (HCT-116 [11]): 7.57% | selectivity ratio at 1.5 h [12]: 35 | IC50 (CT26): 4110 nM | Activity (HCT-116 [13]): 2.28% | inhibition (HCT-116 [14]): Dose-Dependent Effect
